Assay results from US8414989B2, “Cyclodextrin compositions, articles, and methods” (Cellresin Technologies, LLC, priority 2011, dated 2013).

Experiments:
Type in all cases: physicochemical
[1] = Example 7: 1-MCP permeation through polyethylene film from PSA label into 1,000 mL headspace; conditions: 11 cm diameter PSA label on 25 μm PE film, 1,000 mL kettle
Text: This method is designed to measure the permeability of 1-MCP through polyethylene film into a confined, fixed volume headspace following release from a PSA label adhered to the surface of the film defining the fixed volume. The methodology simulates the headspace of a flexible film package having initially low relative humidity, wherein a PSA label containing 1-MCP is adhered to the outside of the package. As the humidity rises inside the package by respiration of fresh agricultural products, the water vapor increases in concentration and it diffuses through the package film to the outside environment but also into the PSA. Thus, as the water vapor diffuses through the film into the 1-MCP adhesive label adhered to the outside of the package film; 1-MCP released from the label adhesive into the fixed volume (headspace) was measured.
A coated, cured labelstock sheet made according to the procedure of Example 6 was cut by hand into an 11 cm diameter circle. Next the PET liner was removed from the label and the label was adhered via the PSA to a 13.5 cm diameter, 1 mil (25 μm) thick polyethylene (PE) film (obtained from the Pliant Corporation of Schaumburg, Ill.). The paper side of this structure was then covered with aluminum foil. The foil/paper/PSA/PE layered structure was mounted onto the open end of a 1,000 mL glass reaction kettle bottom (6947-1LBO, from Corning Glass of Corning, N.Y.) and sealed to the kettle's glass flange using aluminum sealing rings. The layered structure was oriented over the 11 cm opening with the PE film facing in and the aluminum facing out. The glass reaction kettle was modified with a silicone septum port to allow sampling of the 1,000 mL headspace. Headspace analysis was conducted by removing 250 μL of headspace volume from the 1,000 mL glass kettle and analyzing according to the technique of Example 3.
Then 200 μL of water was added through the septum port to the inside of the glass kettle. The headspace was analyzed for 1-MCP at 17, 25 and 90 hours after the injection of water using the technique employed in Example 3. At 17 hours, 25 hours, and 90 hours after injection of the water, the 1-MCP headspace concentration was 3.6 ppm, 7.0 ppm and 8.0 ppm of 1-MCP, respectively.

[2] = Example 3: 1-MCP headspace release versus wt-% 1-MCP/c/α-CD in UV-cured coating; conditions: 2.5 cm x 10 cm, 250 mL bottle, 20 μL water, 24 hours
Protocol: A 20 mL bottle was charged with 9.6 g of UV Coating VP 10169/60 MF-2NE (obtained from Verga GmbH of Aschau am Inn, Germany). Then 0.4 g of 1-MCP/α-cyclodextrin complex (4.7% 1-MCP obtained from AgroFresh of Spring House, Pa.) termed “1-MCP/c/α-CD” was added to the bottle. The bottle was then firmly capped and shaken by hand by hand until the blends appear uniformly dispersed, resulting in a 4.0 wt-% 1-MCP/c/α-CD blend. Three additional blends containing 2.0 wt-%, 1.0 wt-% and 0.5 wt-% of 1-MCP/c/α-CD were prepared in the same manner.
A rubber ink roller was used to deliver a thin (nominally 0.3 μm) coating to a 20 cm by 20 cm polyethylene extrusion coated paper sheet using the technique of Example 2.
Using razor blade, 2.5 cm×10 cm rectangles were cut from the coated portion of each of the sheets. Then the coated rectangular sheets were cured using the procedure of Example 2. Each cured, coated rectangle was placed in a 250 mL serum bottle. The bottle was then sealed with TEFLON® faced silicone septa. Then 20 μL of deionized water was injected into each bottle. […] Headspace was analyzed for 1-MCP 24 hours after the injection of water, using the technique employed in Example 2, and employing the 6-point 1-butene calibration curve as described in Example 2. Table 2 and FIG. 2 give the 24-hour average 1-MCP headspace concentration and standard deviation for each of the coated and cured rectangular sheets.

[3] = Example 11: 1-MCP headspace release from UV coating on polyethylene coated paperboard; conditions: UV coating with 1-MCP/c/α-CD on PE coated paperboard, 5 cm x 5 cm, 250 mL jar, 200 μL water, average
Protocol: A 20 mL bottle was charged with 9.6 g of UV curable coating formulation (VP 10169/60 MF-2NE, obtained from Verga GmbH of Aschau am Inn, Germany). Then 0.4 g of 1-MCP/c/α-CD (4.7% 1-MCP, obtained from AgroFresh of […], Pa.) was added to the bottle. The bottle was firmly capped and the components mixed by shaking the bottle by hand until the contents appeared to be uniformly dispersed, providing a UV curable mixture.
A polyethylene coated paperboard was prepared by heat laminating a 30 μm thick polyethylene film to a 20 cm×20 cm section of 600 μm thick solid bleached sulfate (SBS) paperboard (obtained from Graphic Packaging International of_) using a heated vacuum press. A rubber ink roller was used to deliver a thin (nominally 0.3 μm) coating of the UV curable mixture to the laboratory prepared polyethylene coated paperboard, using the technique of Example 2. A paper cutter was used to cut a 20 cm by 10 cm rectangle of the coated portion of the board. The coated rectangle was passed by hand about 10 cm beneath a medium pressure mercury arc lamp operating at 79 watts per cm. After 1.5 seconds exposure to the lamp, the sample was removed. The cured sample was allowed to sit on a laboratory bench overnight, coating side down.
After curing, 5 cm by 5 cm sections were cut from the 20 cm by 10 cm rectangles. Each section was individually placed into a 250 mL jar (tall clear WM SEPTA-JAR™, Fisher Scientific P/N 05-719-452; obtained from Fisher Scientific of Waltham, Mass.) equipped with a TEFLON™ faced septum (Fisher Scientific P/N 14-965-84). Each jar was injected with 200 μL of deionized water. […] Jar headspace was analyzed for 1-MCP at […] time periods (0.17, 0.5, 1, 2, 4 and 7 hours) after the injection of water, using the analytical technique employed in Example 3. The results exemplify that greater amounts of 1-MCP were released into the headspace from the UV coated substrate with increasing time.

Which results are given for `CC1=CC1` [1-MCP, 1-methylcyclopropene]?
1-MCP headspace concentration ([1]; 200 μL water, 17 hours): 3.6 ppm; 1-MCP headspace concentration ([1]; 200 μL water, 25 hours): 7.0 ppm; 1-MCP headspace concentration ([1]; 200 μL water, 90 hours): 8.0 ppm; 1-MCP headspace concentration ([1]; no added water, two hours): < 0.01 ppm; Headspace concentration of 1-MCP, Ave. ([2]; 0.5 wt-% 1-MCP/c/α-CD coating): 0.09 ppm (v/v); Headspace concentration of 1-MCP, Ave. ([2]; 1 wt-% 1-MCP/c/α-CD coating): 0.20 ppm (v/v); Headspace concentration of 1-MCP, Ave. ([2]; 2 wt-% 1-MCP/c/α-CD coating): 0.56 ppm (v/v); Headspace concentration of 1-MCP, Ave. ([2]; 4 wt-% 1-MCP/c/α-CD coating): 1.1 ppm (v/v); Headspace concentration of 1-MCP ([3]; 0.17 hours): 0.16 ppm (v/v); Headspace concentration of 1-MCP ([3]; 0.5 hours): 0.63 ppm (v/v); Headspace concentration of 1-MCP ([3]; 1 hour): 1.6 ppm (v/v); Headspace concentration of 1-MCP ([3]; 2 hours): 3.6 ppm (v/v); Headspace concentration of 1-MCP ([3]; 4 hours): 7.3 ppm (v/v); Headspace concentration of 1-MCP ([3]; 7 hours): 12.5 ppm (v/v)
